# Measured values reported in patent US12172983B2, “EGFR inhibitors” (Blueprint Medicines Corporation, priority 2019, dated 2024).
# Experiments:
# [1] = biological target: T1, EGFR (L858R T790M C797S) (Homo sapiens, UniProt P00533, C797S/L858R/T790M); assay: Biochemical EGFR inhibition assay (Caliper mobility shift), EGFR LRTMCS mutant; conditions: inhibitory activity against EGFR LRTMCS mutant; apparent IC50; read-out: Ext Enz LRTMCS
# T1 construct: purchased SignalChem E10-122VG
# Procedure, shortened: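 Each enzyme was allowed to phosphorylate 10–20% of its peptide at 25° C. before EDTA (35 mM) quench. Separated substrate and product peaks were measured by mobility shift, giving apparent IC50 values.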
# [2] = system: phosphorylation of EGFR (Tyr1068) in NCI-H1975 cell line that harbors the EGFR L858R T790M mutations; assay: NCI-H1975 pEGFR AlphaLISA assay; type: cell-based; conditions: Homo sapiens, NCI-H1975, inhibition of phosphorylation of mutant EGFR in NCI-H1975 cells; 4-5 hours incubation; read-out: Ext pEGFR H1975
# Procedure, shortened: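 NCI-H1975 cells (EGFR L858R/T790M) seeded overnight, then treated with compound for 4-5 h at 37 °C/5% CO2. After lysis, p-EGFR (Tyr1068) quantified by AlphaLISA SureFire Ultra with acceptor then donor beads; IC50 fitted from percent inhibition versus log concentration.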
# T1 sequence (P00533 25-1210 T790M/C797S/L858R): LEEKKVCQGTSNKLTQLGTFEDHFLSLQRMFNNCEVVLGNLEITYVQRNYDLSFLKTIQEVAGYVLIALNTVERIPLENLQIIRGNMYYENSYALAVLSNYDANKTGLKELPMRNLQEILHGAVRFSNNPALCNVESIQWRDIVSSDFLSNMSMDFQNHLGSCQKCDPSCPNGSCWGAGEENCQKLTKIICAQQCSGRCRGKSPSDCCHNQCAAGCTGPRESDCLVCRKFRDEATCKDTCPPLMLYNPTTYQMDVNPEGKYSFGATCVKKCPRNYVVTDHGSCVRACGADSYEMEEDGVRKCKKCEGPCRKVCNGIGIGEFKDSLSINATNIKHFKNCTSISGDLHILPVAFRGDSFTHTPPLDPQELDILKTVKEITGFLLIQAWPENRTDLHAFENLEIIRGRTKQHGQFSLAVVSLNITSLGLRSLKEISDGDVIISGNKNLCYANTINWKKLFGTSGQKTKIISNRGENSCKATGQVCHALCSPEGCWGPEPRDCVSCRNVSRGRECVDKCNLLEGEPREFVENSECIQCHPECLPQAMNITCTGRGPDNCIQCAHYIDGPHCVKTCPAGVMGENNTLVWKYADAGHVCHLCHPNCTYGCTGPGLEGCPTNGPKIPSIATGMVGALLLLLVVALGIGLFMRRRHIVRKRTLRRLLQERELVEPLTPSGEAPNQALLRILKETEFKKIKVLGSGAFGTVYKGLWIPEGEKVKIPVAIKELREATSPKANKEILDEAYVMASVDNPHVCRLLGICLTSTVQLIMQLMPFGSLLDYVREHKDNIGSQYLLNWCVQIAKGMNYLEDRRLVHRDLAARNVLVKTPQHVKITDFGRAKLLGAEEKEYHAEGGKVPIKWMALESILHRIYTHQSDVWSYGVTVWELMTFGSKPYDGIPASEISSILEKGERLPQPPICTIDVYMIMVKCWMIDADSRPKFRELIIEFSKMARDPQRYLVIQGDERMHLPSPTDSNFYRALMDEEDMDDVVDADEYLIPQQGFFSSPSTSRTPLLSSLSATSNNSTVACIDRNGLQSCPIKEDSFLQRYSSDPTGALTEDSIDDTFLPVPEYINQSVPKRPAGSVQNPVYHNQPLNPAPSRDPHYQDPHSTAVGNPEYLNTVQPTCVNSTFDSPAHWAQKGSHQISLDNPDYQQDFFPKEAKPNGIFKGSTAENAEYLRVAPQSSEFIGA
IC50 [1] [nM],IC50 [2] [nM],Compound
15.1 to 20,≤ 10,"CCS(=O)(=O)C[C@H]1CN(c2ccc(C(C)C)c3cc(Nc4ccnc(N5CC[C@@H](OCCO)C(F)(F)C5)n4)ncc23)[C@@H]1C (single isomer, unassigned) [Compound 302, 2-{[(4R)-1-[4-({8-[(2R,3S)-3-[(ethanesulfonyl)methyl]-2-methylazetidin-1-yl]-5-(propan-2-yl)isoquinolin-3-yl}amino)pyrimidin-2-yl]-3,3-difluoropiperidin-4-yl]oxy}ethan-1-ol or 2-{[(4S)-1-[4-({8-[(2R,3S)-3-[(ethanesulfonyl)methyl]-2-methylazetidin-1-yl]-5-(propan-2-yl)isoquinolin-3-yl}amino)pyrimidin-2-yl]-3,3-difluoropiperidin-4-yl]oxy}ethan-1-ol]"
15.1 to 20,10.1 to 20,"[2H]C([2H])([2H])O[C@H]1CCN(c2nccc(Nc3cc4c(C(C)C)ccc(N5CC(CS(C)(=O)=O)C5)c4cn3)n2)CC1(F)F (single isomer, unassigned) [Compound 286, N-{2-[(4S)-3,3-difluoro-4-(^2H3)methoxypiperidin-1-yl]pyrimidin-4-yl}-8-[3-(methanesulfonylmethyl)azetidin-1-yl]-5-(propan-2-yl)isoquinolin-3-amine or N-{2-[(4R)-3,3-difluoro-4-(^2H3)methoxypiperidin-1-yl]pyrimidin-4-yl}-8-[3-(methanesulfonylmethyl)azetidin-1-yl]-5-(propan-2-yl)isoquinolin-3-amine]"
≤ 15,10.1 to 20,"COCCO[C@H]1CCN(c2nccc(Nc3cc4c(F)ccc(N5C[C@H](CS(C)(=O)=O)[C@H]5C)c4cn3)n2)C[C@H]1F (single isomer, unassigned) [Compound 216]"
≤ 15,≤ 10,"CO[C@@H]1[C@H](O)CN(c2nccc(Nc3cc4c(C(C)C)cnc(N5C[C@H](CS(C)(=O)=O)[C@H]5C)c4cn3)n2)CC1(F)F (single isomer, unassigned) [Compound 235, (3R,4R)-5,5-difluoro-1-[4-({8-[(2R,3S)-3-(methanesulfonylmethyl)-2-methylazetidin-1-yl]-5-(propan-2-yl)-2,7-naphthyridin-3-yl}amino)pyrimidin-2-yl]-4-methoxypiperidin-3-ol or (3S,4S)-5,5-difluoro-1-[4-({8-[(2R,3S)-3-(methanesulfonylmethyl)-2-methylazetidin-1-yl]-5-(propan-2-yl)-2,7-naphthyridin-3-yl}amino)pyrimidin-2-yl]-4-methoxypiperidin-3-ol]"
≤ 15,≤ 10,"CO[C@H]1CCN(c2nccc(Nc3cc4c(C(C)C)cnc(N5C[C@H](CS(C)(=O)=O)[C@H]5C)c4cn3)n2)C[C@@H]1O (single isomer, unassigned) [Compound 106, (3S,4S)-1-[4-({8-[(2R,3S)-3-(methanesulfonylmethyl)-2-methylazetidin-1-yl]-5-(propan-2-yl)-2,7-naphthyridin-3-yl}amino)pyrimidin-2-yl]-4-methoxypiperidin-3-ol or (3R,4R)-1-[4-({8-[(2R,3S)-3-(methanesulfonylmethyl)-2-methylazetidin-1-yl]-5-(propan-2-yl)-2,7-naphthyridin-3-yl}amino)pyrimidin-2-yl]-4-methoxypiperidin-3-ol]"
≤ 15,≤ 10,"CO[C@@H]1[C@H](O)CN(c2nccc(Nc3cc4c(C(C)C)ccc(N5CC(CS(C)(=O)=O)C5)c4cn3)n2)C[C@@H]1F (single isomer, unassigned) [Compound 148, (3R,4R,5S)-5-fluoro-1-[4-({8-[3-(methanesulfonylmethyl)azetidin-1-yl]-5-(propan-2-yl)isoquinolin-3-yl}amino)pyrimidin-2-yl]-4-methoxypiperidin-3-ol or (3S,4S,5R)-5-fluoro-1-[4-({8-[3-(methanesulfonylmethyl)azetidin-1-yl]-5-(propan-2-yl)isoquinolin-3-yl}amino)pyrimidin-2-yl]-4-methoxypiperidin-3-ol]"
15.1 to 20,≤ 10,"CC(C)c1ccc(N2C[C@H](CS(C)(=O)=O)[C@H]2C)c2cnc(Nc3ccnc(N4CC[C@@H](OCCO)C(F)(F)C4)n3)cc12 (single isomer, unassigned) [Compound 251]"
20.1 to 30,20.1 to 30,"CN[C@H]1CCN(c2nccc(Nc3cc4c(C(C)C)ccc(N5C[C@H](CS(C)(=O)=O)[C@H]5C)c4cn3)n2)C[C@H]1F (single isomer, unassigned) [Compound 306, N-{2-[(3R,4S)-3-fluoro-4-(methylamino)piperidin-1-yl]pyrimidin-4-yl}-8-[(2R,3S)-3-(methanesulfonylmethyl)-2-methylazetidin-1-yl]-5-(propan-2-yl)isoquinolin-3-amine or N-{2-[(3S,4R)-3-fluoro-4-(methylamino)piperidin-1-yl]pyrimidin-4-yl}-8-[(2R,3S)-3-(methanesulfonylmethyl)-2-methylazetidin-1-yl]-5-(propan-2-yl)isoquinolin-3-amine]"
≤ 15,≤ 10,"CC(C)c1ccc(N2C[C@H](CS(C)(=O)=O)[C@H]2C)c2cnc(Nc3ccnc(N4CCC(OCCO)CC4)n3)cc12 [Compound 171, 2-({1-[4-({8-[(2R,3S)-3-(methanesulfonylmethyl)-2-methylazetidin-1-yl]-5-(propan-2-yl)isoquinolin-3-yl}amino)pyrimidin-2-yl]piperidin-4-yl}oxy)ethan-1-ol]"
≤ 15,10.1 to 20,"CC(C)c1ccc(N2C[C@H](CS(C)(=O)=O)[C@H]2C)c2cnc(Nc3ccnc(N4CC[C@](F)(CO)C4)n3)cc12 (single isomer, unassigned) [Compound 270, [(3R)-3-fluoro-1-[4-({8-[(2R,3S)-3-(methanesulfonylmethyl)-2-methylazetidin-1-yl]-5-(propan-2-yl)isoquinolin-3-yl}amino)pyrimidin-2-yl]pyrrolidin-3-yl]methanol or [(3S)-3-fluoro-1-[4-({8-[(2R,3S)-3-(methanesulfonylmethyl)-2-methylazetidin-1-yl]-5-(propan-2-yl)isoquinolin-3-yl}amino)pyrimidin-2-yl]pyrrolidin-3-yl]methanol]"

# More lines, now with the values behind:
Compound,IC50 [1] [nM],IC50 [2] [nM]
"[2H]C([2H])([2H])OC1CCN(c2nccc(Nc3cc4c(C(C)C)ccc(N5C[C@H](CS(C)(=O)=O)[C@H]5C)c4cn3)n2)CC1 [Compound 263, 8-[(2R,3S)-3-(methanesulfonylmethyl)-2-methylazetidin-1-yl]-N-{2-[4-(^2H3)methoxypiperidin-1-yl]pyrimidin-4-yl}-5-(propan-2-yl)isoquinolin-3-amine]",15.1 to 20,10.1 to 20
"CC(C)c1ccc(N2CC(CS(C)(=O)=O)C2)c2cnc(Nc3ccnc(N4CCC5(CC4)COCCO5)n3)cc12 [Compound 167, N-(2-{1,4-dioxa-9-azaspiro[5,5]undecan-9-yl}pyrimidin-4-yl)-8-[3-(methanesulfonylmethyl)azetidin-1-yl]-5-(propan-2-yl)isoquinolin-3-amine]",≤ 15,10.1 to 20
"CC(C)c1ccc(N2CC(CS(C)(=O)=O)C2)c2cnc(Nc3ccnc(N4C[C@H]5COC[C@H]5C4)n3)cc12 [Compound 10, N-{2-[(3aR,6aS)-hexahydro-1H-furo[3,4-c]pyrrol-5-yl]pyrimidin-4-yl}-8-[3-(methanesulfonylmethyl)azetidin-1-yl]-5-(propan-2-yl)isoquinolin-3-amine]",≤ 15,30.1 to 50
"CO[C@@H]1CCN(c2nccc(Nc3cc4c(C(C)C)ccc(N5C[C@H](CS(C)(=O)=O)[C@H]5C)c4cn3)n2)C[C@@H]1OCCO (single isomer, unassigned) [Compound 296, 2-{[(3S,4R)-1-[4-({8-[(2R,3S)-3-(methanesulfonylmethyl)-2-methylazetidin-1-yl]-5-(propan-2-yl)isoquinolin-3-yl}amino)pyrimidin-2-yl]-4-methoxypiperidin-3-yl]oxy}ethan-1-ol or 2-{[(3R,4S)-1-[4-({8-[(2R,3S)-3-(methanesulfonylmethyl)-2-methylazetidin-1-yl]-5-(propan-2-yl)isoquinolin-3-yl}amino)pyrimidin-2-yl]-4-methoxypiperidin-3-yl]oxy}ethan-1-ol]",30.1 to 100,10.1 to 20
"CN[C@H]1CCN(c2nccc(Nc3cc4c(C(C)C)ccc(N5C[C@H](CS(C)(=O)=O)[C@H]5C)c4cn3)n2)CC1(F)F (single isomer, unassigned) [Compound 309, N-{2-[(4S)-3,3-difluoro-4-(methylamino)piperidin-1-yl]pyrimidin-4-yl}-8-[(2R,3S)-3-(methanesulfonylmethyl)-2-methylazetidin-1-yl]-5-(propan-2-yl)isoquinolin-3-amine or N-{2-[(4R)-3,3-difluoro-4-(methylamino)piperidin-1-yl]pyrimidin-4-yl}-8-[(2R,3S)-3-(methanesulfonylmethyl)-2-methylazetidin-1-yl]-5-(propan-2-yl)isoquinolin-3-amine]",15.1 to 20,≤ 10
"COC1CCN(c2nccc(Nc3cc4c(C(C)C)ccc(N5CC(CS(C)(=N)=O)C5)c4cn3)n2)CC1 (single isomer, unassigned) [Compound 15, (S)-imino((1-(5-isopropyl-3-((2-(4-methoxypiperidin-1-yl)pyrimidin-4-yl)amino)isoquinolin-8-yl)azetidin-3-yl)methyl)(methyl)-λ^6-sulfanone or (R)-imino((1-(5-isopropyl-3-((2-(4-methoxypiperidin-1-yl)pyrimidin-4-yl)amino)isoquinolin-8-yl)azetidin-3-yl)methyl)(methyl)-λ^6-sulfanone]",≤ 15,30.1 to 50
